Source: patent US11370763B2, “Compounds and compositions for treating conditions associated with NLRP activity” (Novartis AG, priority 2017, dated 2022)

Tested on: IL-1β production in PMA-differentiated THP-1 cells
Assay: IL-1β production in PMA-differentiated THP-1 cells stimulated with gramicidin (hTHP-1 assay containing 2% fetal bovine serum; Procedures 1-3)
Assay type: cell-based, human
Conditions: Homo sapiens, THP-1, hTHP-1 assay containing 2% fetal bovine serum; class symbols; read-out: hTHP-1 IC50 (Average IC50 of compounds in hTHP-1 assay)
Outline: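 THP-1 cells differentiated with PMA (20 ng/ml, 16-18 h), replated in 2% FBS RPMI (50,000 cells/well), preincubated 1 h with compound (top final 100 μM, 3-fold steps, 0.37% DMSO), then stimulated 2 h with gramicidin (5 μM). Supernatant IL-1β measured by HTRF.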

| Compound | IC50 [µM] |
| --- | --- |
| CC(C)c1cc(-c2ccc3c(c2)CCOC3)cc(C(C)C)c1CC(=O)N=S(=O)(NC(=O)OC(C)(C)C)c1cnc(C(C)(C)O)s1 (stereo not drawn) [Example 138, tert-butyl (2-(2-hydroxypropan-2-yl)-N-(2-(4-(isochroman-6-yl)-2,6-diisopropylphenyl)acetyl)thiazole-5-sulfonimidoyl)carbamate] | 1 to 5 |
| CC(C)c1cc(-c2ccc3c(c2)CCOC3)cc(C(C)C)c1CC(=O)N=S(N)(=O)c1cnc(C(C)(C)O)s1 (stereo not drawn) [Example 139, N-(amino(2-(2-hydroxypropan-2-yl)thiazol-5-yl)(oxo)-λ^6-sulfaneylidene)-2-(4-(isochroman-6-yl)-2,6-diisopropylphenyl)acetamide] | 0.2 to 1 |
| CC(C)c1cc(COC2CCCC2)cc(C(C)C)c1CC(=O)N=S(=O)(NC(=O)OC(C)(C)C)c1cnc(C(C)(C)O)s1 (stereo not drawn) [Example 140, tert-butyl (N-(2-(4-((cyclopentyloxy)methyl)-2,6-diisopropylphenyl)acetyl)-2-(2-hydroxypropan-2-yl)thiazole-5-sulfonimidoyl)carbamate] | 0.2 to 1 |
| CC(C)c1cc(COC2CCCC2)cc(C(C)C)c1CC(=O)N=S(N)(=O)c1cnc(C(C)(C)O)s1 (stereo not drawn) [Example 141, N-(amino(2-(2-hydroxypropan-2-yl)thiazol-5-yl)(oxo)-λ^6-sulfaneylidene)-2-(4-((cyclopentyloxy)methyl)-2,6-diisopropylphenyl)acetamide] | 0.04 to 0.2 |
| CC(C)c1cc2c(c(C(C)C)c1CC(=O)N=S(N)(=O)c1cnc(C(C)(C)O)s1)CCC2 (stereo not drawn) [Example 142, N-(amino(2-(2-hydroxypropan-2-yl)thiazol-5-yl)(oxo)-λ^6-sulfaneylidene)-2-(4,6-diisopropyl-2,3-dihydro-1H-inden-5-yl)acetamide] | 1 to 5 |
| COc1cc(C(C)C)c(CC(=O)NS(=O)(=O)c2ncc(C(C)(C)O)s2)c(C(C)C)n1 [Example 143, 2-(2,4-diisopropyl-6-methoxypyridin-3-yl)-N-((5-(2-hydroxypropan-2-yl)thiazol-2-yl)sulfonyl)acetamide] | 1 to 5 |
| CC(C)c1ncc(F)c(C(C)C)c1CC(=O)N=S(N)(=O)c1ncc(C(C)(C)O)s1 (stereo not drawn) [Example 144, N-(amino(5-(2-hydroxypropan-2-yl)thiazol-2-yl)(oxo)-λ^6-sulfaneylidene)-2-(5-fluoro-2,4-diisopropylpyridin-3-yl)acetamide] | 5 to 30 |
| CC(C)c1ncc(F)c(C(C)C)c1CC(=O)N=S(N)(=O)c1cc(C(C)(C)O)cs1 (stereo not drawn) [Example 145, N-(amino(4-(2-hydroxypropan-2-yl)thiophen-2-yl)(oxo)-λ^6-sulfaneylidene)-2-(5-fluoro-2,4-diisopropylpyridin-3-yl)acetamide] | 0.2 to 1 |
| CC(C)c1ncc(F)c(C(C)C)c1CC(=O)N=S(N)(=O)c1cnc(C(C)(C)O)s1 (stereo not drawn) [Example 146, N-(amino(2-(2-hydroxypropan-2-yl)thiazol-5-yl)(oxo)-λ^6-sulfaneylidene)-2-(5-fluoro-2,4-diisopropylpyridin-3-yl)acetamide] | 5 to 30 |
| CC(C)c1ncc(F)c(C(C)C)c1CC(=O)N=S(N)(=O)c1nc(C(C)(C)O)cs1 (stereo not drawn) [Example 147, N-(amino(4-(2-hydroxypropan-2-yl)thiazol-2-yl)(oxo)-λ^6-sulfaneylidene)-2-(5-fluoro-2,4-diisopropylpyridin-3-yl)acetamide] | 1 to 5 |
| CC(C)c1ncc(F)c(C(C)C)c1CC(=O)N=S(N)(=O)c1ccn(C(C)C)n1 (stereo not drawn) [Example 148, N-(amino(1-isopropyl-1H-pyrazol-3-yl)(oxo)-λ^6-sulfaneylidene)-2-(5-fluoro-2,4-diisopropylpyridin-3-yl)acetamide] | 5 to 30 |
| CC(C)c1ncc(F)c(C(C)C)c1CC(=O)N=S(N)(=O)c1sc(C(C)(C)O)cc1F (stereo not drawn) [Example 149, N-(amino(3-fluoro-5-(2-hydroxypropan-2-yl)thiophen-2-yl)(oxo)-λ^6-sulfaneylidene)-2-(5-fluoro-2,4-diisopropylpyridin-3-yl)acetamide] | 0.2 to 1 |
| Cc1ncc(C(C)C)c(CC(=O)N=S(N)(=O)c2sc(C(C)(C)O)cc2F)c1C(C)C (stereo not drawn) [Example 150, N-(amino(3-fluoro-5-(2-hydroxypropan-2-yl)thiophen-2-yl)(oxo)-λ^6-sulfaneylidene)-2-(3,5-diisopropyl-2-methylpyridin-4-yl)acetamide] | 5 to 30 |
| CC(C)c1cc(C#N)nc(C(C)C)c1CC(=O)N=S(N)(=O)c1cc(C(C)(C)O)cs1 (stereo not drawn) [Example 151, N-(amino(4-(2-hydroxypropan-2-yl)thiophen-2-yl)(oxo)-λ^6-sulfaneylidene)-2-(6-cyano-2,4-diisopropylpyridin-3-yl)acetamide] | 0.2 to 1 |
| COCc1cc(C(C)C)c(CC(=O)N=S(N)(=O)c2cc(C(C)(C)O)cs2)c(C(C)C)n1 (stereo not drawn) [Example 152, N-(amino(4-(2-hydroxypropan-2-yl)thiophen-2-yl)(oxo)-λ^6-sulfaneylidene)-2-(2,4-diisopropyl-6-(methoxymethyl)pyridin-3-yl)acetamide] | 0.2 to 1 |
| CC(C)c1nc(C(F)(F)F)nc(C(C)C)c1CC(=O)N=S(N)(=O)c1cnc(C(C)(C)O)s1 (stereo not drawn) [Example 153, N-(amino(2-(2-hydroxypropan-2-yl)thiazol-5-yl)(oxo)-λ^6-sulfaneylidene)-2-(4,6-diisopropyl-2-(trifluoromethyl)pyrimidin-5-yl)acetamide] | 1 to 5 |
| CC(C)c1cnc(F)c(C(C)C)c1CC(=O)N=S(N)(=O)c1cnc(C(C)(C)O)s1 (stereo not drawn) [Example 154, N-(amino(2-(2-hydroxypropan-2-yl)thiazol-5-yl)(oxo)-λ^6-sulfaneylidene)-2-(2-fluoro-3,5-diisopropylpyridin-4-yl)acetamide] | 5 to 30 |
| CC(C)c1cc2c(c(C(C)C)c1CC(=O)N=S(N)(=O)c1cc(C(C)(C)O)cs1)COC2 (stereo not drawn) [Example 220, N-(amino(4-(2-hydroxypropan-2-yl)thiophen-2-yl)(oxo)-λ^6-sulfaneylidene)-2-(4,6-diisopropyl-1,3-dihydroisobenzofuran-5-yl)acetamide] | 0.04 to 0.2 |
| CC(C)c1cc2c(c(C(C)C)c1CC(=O)N=S(N)(=O)c1ccn(C(C)C)n1)COC2 (stereo not drawn) [Example 221, N-(amino(1-isopropyl-1H-pyrazol-3-yl)(oxo)-λ^6-sulfaneylidene)-2-(4,6-diisopropyl-1,3-dihydroisobenzofuran-5-yl)acetamide] | 5 to 30 |
| CC(C)c1cc(C#N)c(F)c(C(C)C)c1CC(=O)N=S(N)(=O)c1ncc(C(C)(C)O)s1 (stereo not drawn) [compound 13, 2-(4-cyano-3-fluoro-2,6-diisopropylphenyl)-N-(5-(2-hydroxypropan-2-yl)thiazol-2-ylsulfonimidoyl)acetamide] | 0.2 to 1 |
| COc1ccc(CNS(=O)(=NC(=O)Cc2c(C(C)C)cc(F)cc2C(C)C)c2ncc(C(C)(C)O)s2)cc1 (stereo not drawn) [compound 41, 2-(4-fluoro-2,6-diisopropylphenyl)-N-(5-(2-hydroxypropan-2-yl)-N-(4-methoxybenzyl)thiazole-2-sulfonimidoyl)acetamide] | 5 to 30 |
